Reference: ChEMBL document CHEMBL1201862, “PubChem BioAssay data set” (2004)
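Each compound was tested at five concentrations against cells in 96-well plates for 48 hours. At the GI50, growth is halved.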 Active and inactive are the calls of the source. No stated cut-off is given here; in the data, active = GI50 up to about 1.1 µM and inactive = higher.

Key:
Assay in all cases: NCI tumour cell line growth inhibition, 48 h
[1] = tested on: BT-549
[2] = tested on: DU-145
[3] = tested on: MDA-MB-435
[4] = tested on: PC-3
[5] = tested on: RXF 631
[6] = tested on: Hs-578T
[7] = tested on: MDA-N
[8] = tested on: T47D
[9] = tested on: 786-0

Structure (SMILES) | GI50 [1] | GI50 [2] | GI50 [3] | GI50 [4] | GI50 [5] | further results
CN(Cc1cnc2nc(N)nc(N)c2n1)c1ccc(C(=O)NC(CCC(=O)O)C(=O)O)cc1 (stereo unspecified) | 4.07 µM (inactive) | 0.0154 µM (active) | < 0.01 µM (active) | 3.81 µM (inactive) |  | 
O=S(O)c1cc(Cl)c(O)c(Cl)c1 |  |  |  |  | > 100 µM (inactive) | 
CO[C@@]12[C@H](COC(N)=O)C3=C(C(=O)C(C)=C(N)C3=O)N1C[C@@H]1N[C@@H]12 [MITOMYCIN] | 1.75 µM (inactive) |  |  | 2.24 µM (inactive) |  | GI50 [6]: 3.22 µM (inactive)
COc1ccc(/C(C=O)=C(\Cl)c2ccc(OC)c(OC)c2)cc1 |  |  |  |  | > 100 µM (inactive) | 
Nc1ccc(OCC(O)N2C(=O)c3ccccc3C2=O)cc1 (stereo unspecified) |  | > 100 µM (inactive) | > 100 µM (inactive) | > 100 µM (inactive) |  | GI50 [7]: > 100 µM (inactive); GI50 [8]: > 100 µM (inactive)
CCCNC(=O)Nc1c([N+](=O)[O-])cc(C(F)(F)F)cc1[N+](=O)[O-] |  |  |  |  | 12.7 µM (inactive) | GI50 [9]: > 100 µM (inactive)
